According to US10787696B2 (priority 2009, dated 2020):

Experiments:
Format in all cases: cell-based
[1] = system: synthetic promoter G5TO4 (tetracycline transcription silencer tTS)
[2] = system: synthetic promoter G5TO4 (tetracycline transcription silencer tTS); details: 1 μg/ml tetracycline; culture medium two days post-transfection; HeLa-tTS
[3] = system: synthetic promoter G5TO4 (tetracycline transcription silencer tTS); details: clone #32, 1 μg/ml tetracycline

CN(C)[C@@H]1C(O)=C(C(N)=O)C(=O)[C@@]2(O)C(O)=C3C(=O)c4c(O)cccc4[C@@](C)(O)[C@H]3C[C@@H]12 [tetracycline]
reporter activation by the addition of tetracycline [1]: more than 14 fold | relative light units (RLU) with tetracycline vs. absence of tetracycline [2]: 16 fold | reporter gene activation when tetracycline was added to the culture medium [3]: more than 200 fold | luciferase activity in medium of cells treated with tetracycline vs. not treated ([3]; 96-well microplate, one day): 200 fold
